From patent publication US20050282755A1, “Compositions having antimicrobial activity and uses thereof” (priority 2004, published 2005)
In brackets after ≈: the same amount, converted by molar mass. Where two headings read alike, the source gives them in different places. Non-standard residues stand in square brackets, D forms with d. Residues, ends and D or L forms follow the SMILES beside them. *: point of attachment. Lauroyl = CCCCCCCCCCCC(=O)*; Decanoyl = CCCCCCCCCC(=O)*; Hexanoyl = CCCCCC(=O)*

Tests used:
Format in all cases: cell-based
[1] = tested on: Staphylococcus aureus ATCC 29213; experiment: MIC, NCCLS M7-A6 broth microdilution, cation-adjusted Mueller Hinton broth (Table 9, no superscript)
In short: (§1)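 Broth microdilution in cation-adjusted Mueller Hinton broth, log-phase inoculum giving 5×10^5 to 1×10^6 CFU/milliliter per well. Overnight incubation at 37° C. MIC taken as lowest peptide concentration with no visible turbidity versus a no-peptide control.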

Salmonella dublin (Lane) = experiment: MIC, NCCLS M7-A6 broth microdilution (Table 9, no superscript)
In short: as §1

[2] = tested on: Pseudomonas aeruginosa ATCC 27853; experiment: as above
In short: as §1

[3] = tested on: Escherichia coli ATCC 25922; experiment: as above
In short: as §1

[4] = tested on: Staphylococcus epidermidis ATCC 12228; experiment: as above
In short: as §1

[5] = tested on: Candida albicans ATCC 18804; experiment: MIC in yeasts, NCCLS M27-A2 broth microdilution, RPMI 1640 (Table 9, letter e)
Method: Briefly, RPMI 1640 supplemented with glutamine and phenol red as a pH indicator was used in the broth microdilution method. A 96-well plate was inoculated so that the final inoculum of yeast for each well contained between 0.5×10^3 and 2.5×10^3 CFU/milliliter. […] Plates were incubated for 24 to 48 hours at 37° C. The lowest concentration of peptide that contained no visible growth was determined as the MIC. MIC values that utilized this method of MIC determination are indicated in Table 9 with a subscript letter “e.” “Peptide Number” corresponds to peptide compositions and corresponding designations in Table 3.

[6] = tested on: Propionibacterium acnes ATCC 6919; experiment: MIC, agar dilution method NCCLS M11-A6, Brucella agar, anaerobic (Table 9, superscript c); settings: ATCC 6919
Method: A bacterial suspension was prepared to allow for a final inoculum on the plate of 1.5×10^8 CFU/milliliter. After the suspension absorbed into the agar surface, the plates were incubated for 48-96 hours at 37° C. in a GasPak anaerobic chamber. The lowest concentration of peptide that contained no colony growth on the agar plate was determined as the MIC. MIC values that utilized this method of MIC determination are indicated in Table 9 with a superscript letter “c.”

[7] = no superscript: NCCLS M7-A6 broth microdilution

CCCCCCCCCCCC(=O)N[C@@H](CCCNC(=N)N)C(=O)N[C@@H](CO)C(=O)N[C@@H](CCCNC(=N)N)C(=O)N[C@@H](Cc1c[nH]c2ccccc12)C(=O)N[C@@H](CCCNC(=N)N)C(=O)N[C@@H](CC(=O)O)C(=O)N[C@@H](Cc1c[nH]c2ccccc12)C(=O)N[C@@H](Cc1c[nH]c2ccccc12)C(=O)N[C@@H](CCCNC(=N)N)C(=O)N[C@@H](CC(N)=O)C(=O)N[C@@H](Cc1c[nH]c2ccccc12)C(=O)N[C@@H](CCSC)C(=O)N[C@@H](CCCNC(=N)N)C(N)=O [Peptide 147, Lauryl-RSRWRDWWRNWMR-NH2] (Lauroyl-RSRWRDWWRNWMR-NH2)
MIC S. aureus ([1]; ATCC 29213): 64 µg/mL (≈ 29.5 µM) | MIC S. dublin (Salmonella dublin (Lane)): 64 µg/mL (≈ 29.5 µM) | MIC P. aeruginosa ([2]; ATCC 27853): >64 µg/mL | MIC E. coli ([3]; ATCC 25922): 64 µg/mL (≈ 29.5 µM) | MIC S. epidermidis ([4]; ATCC 12228): 2 µg/mL (≈ 0.921 µM) | MIC C. albicans ([5]; ATCC 18804): 2e ug/mL

CCCCCCCCCCCC(=O)N[C@@H](CCCNC(=N)N)C(=O)N[C@@H](CO)C(=O)N[C@@H](CCCNC(=N)N)C(=O)N[C@@H](Cc1c[nH]c2ccccc12)C(=O)N[C@@H](CCCNC(=N)N)C(=O)N[C@@H](CC(=O)O)C(=O)N[C@@H](Cc1c[nH]c2ccccc12)C(=O)N[C@@H](Cc1c[nH]c2ccccc12)C(=O)N[C@@H](CCCNC(=N)N)C(=O)N[C@@H](CC(N)=O)C(=O)N[C@@H](Cc1c[nH]c2ccccc12)C(=O)N[C@@H](CCSC)C(=O)N[C@@H](CCCNC(=N)N)C(=O)N[C@@H](CC(C)C)C(=O)N[C@@H](CC(C)C)C(N)=O [Peptide 148, Lauryl-RSRWRDWWRNWMRLL-NH2] (Lauroyl-RSRWRDWWRNWMRLL-NH2)
MIC S. aureus ([1]; ATCC 29213): >64 µg/mL | MIC S. dublin (Salmonella dublin (Lane)): >64 µg/mL | MIC P. aeruginosa ([2]; ATCC 27853): >64 µg/mL | MIC E. coli ([3]; ATCC 25922): >64 µg/mL | MIC S. epidermidis ([4]; ATCC 12228): >64 µg/mL | MIC C. albicans ([5]; ATCC 18804): 4e ug/mL

CCCCCCCCCC(=O)N[C@H](CCCNC(=N)N)C(=O)N[C@H](CO)C(=O)N[C@H](CCCNC(=N)N)C(=O)N[C@H](Cc1c[nH]c2ccccc12)C(=O)N[C@H](CCCNC(=N)N)C(=O)N[C@H](CC(=O)O)C(=O)N[C@@H](C(=O)N[C@H](C)C(=O)N[C@H](CCCNC(=N)N)C(=O)N[C@H](CC(N)=O)C(=O)N[C@H](Cc1ccccc1)C(=O)N[C@H](CC(C)C)C(=O)N[C@H](CCCNC(=N)N)C(N)=O)C(C)C [Peptide 190, Decanyl-rsrwrdvarnflr-NH2] (Decanoyl-[dR][dS][dR][dW][dR][dD][dV][dA][dR][dN][dF][dL][dR]-NH2)
MIC S. aureus ([1]; ATCC 29213): 8 µg/mL (≈ 4.24 µM) | MIC P. aeruginosa ([2]; ATCC 27853): 8 µg/mL (≈ 4.24 µM) | MIC E. coli ([3]; ATCC 25922): 4 µg/mL (≈ 2.12 µM) | MIC S. epidermidis ([4]; ATCC 12228): 2 µg/mL (≈ 1.06 µM) | MIC P. acnes [6]: 4 µg/mL (≈ 2.12 µM)

CCCCCC(=O)N[C@@H](CCCNC(=N)N)C(=O)N[C@@H](CO)C(=O)N[C@@H](CCCNC(=N)N)C(=O)N[C@@H](Cc1c[nH]c2ccccc12)C(=O)N[C@@H](CCCNC(=N)N)C(=O)N[C@@H](CC(=O)O)C(=O)N[C@H](C(=O)N[C@@H](C)C(=O)N[C@@H](CCCNC(=N)N)C(=O)N[C@@H](CC(N)=O)C(=O)N[C@@H](Cc1ccccc1)C(=O)N[C@@H](CCSC)C(=O)N[C@@H](CCCNC(=N)N)C(N)=O)C(C)C [Peptide 202, Hexyl-RSRWRDVARNFMR-NH2] (Hexanoyl-RSRWRDVARNFMR-NH2)
MIC S. aureus ([1]; ATCC 29213): >64 µg/mL | MIC S. dublin (Salmonella dublin (Lane)): >64 µg/mL | MIC P. acnes [6]: >64c ug/mL

Lauryl-dvarfm-NH2 [Peptide 125]
MIC S. aureus [1, 7]: >64 µg/mL | MIC S. dublin (Salmonella dublin (Lane); [7]): >64 µg/mL | MIC P. aeruginosa [2, 7]: >64 µg/mL | MIC E. coli [3, 7]: >64 µg/mL | MIC S. epidermidis [4, 7]: >64 µg/mL | MIC C. albicans ([5]; letter e: NCCLS M27-A2 broth microdilution, RPMI 1640): >64e ug/mL

Lauryl-rsrwrdvarfm-NH2 [Peptide 115]
MIC P. acnes [6]: 4c ug/mL
